Assay results: patent US6323205A (priority 2000, dated 2001)

Tests used:
LX-1 lung tumor = test: Antitumor activity against LX-1 lung tumor in nude mice (Example 10, combinations); assay type: in vivo, human tumor xenograft in nude mice; conditions: for Avg Tumor Diameter: 4 treatments, mg/kg: EDX 40, PDX 60, TXL 25, TXT 20, PDX+TXL 45+18, PDX+TXT 45+15, 'then' = taxane 24 h later; for Change in Tumor Volume: from starting point of 83 mg, 3 to 4 days after treatment end
PC-3 (human prostate) = test: Antitumor activity in PC-3 tumor model in mice (Example 11); conditions: PC3, dose PDX 60, TXL 25, PDX + TXL 45 + 16
Source text: (§1) The tumor volume at the time of initial treatment was 14-19 mm^3.

LX-1 (human lung) = test: Antitumor activity in LX-1 tumor model in mice (Example 11)
Source text: as §1

TSU-PR1 (human prostate) = test: Antitumor activity in TSU-PR1 tumor model in mice (Example 11)
Source text: as §1

human LX-1 lung cancer = test: Antitumor activity against xenografts of human LX-1 lung cancer in nude mice (Example 3); assay type: in vivo, human tumor xenograft in nude mice; conditions: Example 2 protocol, tumor free three weeks after therapy
[1] = system: human MX-1 mammary carcinoma; test: Antitumor activity against xenografts of human MX-1 mammary carcinoma in nude mice; conditions: same doses, no measurable tumor at day 14, mice/mice tested
[2] = Phase II clinical trial, tumor responses; assay type: in vivo, human patients; conditions: 150 mg/m^2 biweekly
Source text: To date, the first six patients have received at least one cycle of treatments. […] Specifically, three patients enrolled in the study had measurable disease.

[3] = dose PDX 60, TXL 25, PDX + TXL 45 + 16
[4] = dose PDX 60, TXL 25, PDX + TXL 45 + 16, initial volume 14-19 mm^3

CCC(Cc1cnc2nc(N)nc(N)c2n1)c1ccc(C(=O)N[C@@H](CCC(=O)O)C(=O)O)cc1 (stereo partly drawn) [EDX, edatrexate]
Avg Tumor Diameter (LX-1 lung tumor): 6.6 ± 2 mm | Change in Tumor Volume (LX-1 lung tumor; same doses): +102 mg | Tumor Free Mice at 3-4 days (LX-1 lung tumor; same doses, mice/mice treated): 0/10

CC(=O)O[C@H]1C(=O)[C@@]2(C)[C@H]([C@H](OC(=O)c3ccccc3)[C@]3(O)C[C@H](OC(=O)[C@H](O)[C@@H](NC(=O)c4ccccc4)c4ccccc4)C(C)=C1C3(C)C)[C@]1(OC(C)=O)CO[C@@H]1C[C@@H]2O [TXL, paclitaxel, reference compound]
Avg Tumor Diameter (LX-1 lung tumor): 6.2 ± 2 mm | Change in Tumor Volume (LX-1 lung tumor; same doses): +42 mg | Tumor Free Mice at 3-4 days (LX-1 lung tumor; same doses, mice/mice treated): 0/10 | Avg Tumor Diameter (PC-3 (human prostate)): 4.3 ± 0.3 mm | Tumor Free Mice (PC-3 (human prostate)): 0/6 | Change in Tumor Volume (PC-3 (human prostate); initial volume 14-19 mm^3): +26 | Avg Tumor Diameter (LX-1 (human lung); [3]): 11.6 ± 1 mm | Tumor Free Mice (LX-1 (human lung); [3]): 0/6 | Change in Tumor Volume (LX-1 (human lung); [4]): +803 | Avg Tumor Diameter (TSU-PR1 (human prostate); [3]): 3.2 ± 0.3 mm | Tumor Free Mice (TSU-PR1 (human prostate); [3]): 0/6 | Change in Tumor Volume (TSU-PR1 (human prostate); [4]): 0

CC(=O)O[C@@]12CO[C@@H]1C[C@H](O)[C@@]1(C)C(=O)[C@H](O)C3=C(C)[C@@H](OC(=O)[C@H](O)[C@@H](NC(=O)OC(C)(C)C)c4ccccc4)C[C@@](O)([C@@H](OC(=O)c4ccccc4)[C@H]21)C3(C)C [TXT, docetaxel]
Avg Tumor Diameter (LX-1 lung tumor): 6.0 ± 2 mm | Change in Tumor Volume (LX-1 lung tumor; same doses): +34 mg | Tumor Free Mice at 3-4 days (LX-1 lung tumor; same doses, mice/mice treated): 1/10 | Tumor Free Mice at 28 days (LX-1 lung tumor; same doses, mice/mice treated): 0/10

CN(Cc1cnc2nc(N)nc(N)c2n1)c1ccc(C(=O)N[C@@H](CCC(=O)O)C(=O)O)cc1 [MTX, methotrexate, reference compound]
Cures (human LX-1 lung cancer): 0/10 | Complete Regressions [1]: no regressions

C#CCC(Cc1cnc2nc(N)nc(N)c2n1)c1ccc(C(=O)N[C@@H](CCC(=O)O)C(=O)O)cc1 (stereo partly drawn) [10-propargyl-10-deazaaminopterin]
response of fourth patient (evaluable disease) [2]: objective improvement in disease parameters | patients with major responses ([2]; of first six patients): four have demonstrated major responses | reduction in tumor diameter (lung scans) ([2]; three patients with measurable disease): at least 50%
